Source: patent US20110171160A1, “POLYMER CONJUGATES OF KISS1 PEPTIDES” (Nektar Therapeutics, priority 2008, published 2011)
No end group written: not given here.

Molecular target: T1, human GPR54 (Homo sapiens, UniProt Q969F8)
T1 construct: host or cells: Chem-1 host cells, with the promiscuous G protein Galpha15 (Gal 5 [sic])
Assay: FLIPR calcium flux agonist assay on GPR54-expressing Chem-1 cell line
Format: cell-based
Settings: time of release n/a (no release incubation); for EC50: read-out: EC50 (nM) of agonist activation at GPR54
Experimental: A FLIPR assay was conducted to screen Kisspeptin and PEG-Kisspeptin peptides for dose-dependent agonist activities on the GP[…]-Protein coupled receptor. […] All compounds were diluted in their storage solvents to produce 250× (of the top dose listed below) master stock solutions. Compounds were then transferred from their master stock solutions into a daughter plate that was used in the assay. Each 250× solution was diluted into assay buffer (1×HBSS with 20 mM HEPES and 2.5 mM Probenecid) to obtain the final top test concentration. Calcium flux agonist assay: Chemicon's cloned human GPR54-expressing cell line is made in the Chem-1 host, which supports high levels of recombinant GPR54 expression on the cell surface and contains high levels of the promiscuous G protein Gal 5 to couple the receptor to the calcium signaling pathway. […] Reference agonist was handled as mentioned above, serving as assay control. Assay was read for 180 seconds using the FLIPR^TETRA. All plates were subjected to appropriate baseline corrections. Once baseline corrections were processed, maximum fluorescence values were exported and data manipulated to calculate percentage activation and Z'. Dose response curves were generated using GraphPad Prism. The curves were fit by utilizing sigmoidal dose response (variable slope) fitting with the bottom parameter fixed at 0 (FIGS.

T1 sequence (Q969F8 whole entry): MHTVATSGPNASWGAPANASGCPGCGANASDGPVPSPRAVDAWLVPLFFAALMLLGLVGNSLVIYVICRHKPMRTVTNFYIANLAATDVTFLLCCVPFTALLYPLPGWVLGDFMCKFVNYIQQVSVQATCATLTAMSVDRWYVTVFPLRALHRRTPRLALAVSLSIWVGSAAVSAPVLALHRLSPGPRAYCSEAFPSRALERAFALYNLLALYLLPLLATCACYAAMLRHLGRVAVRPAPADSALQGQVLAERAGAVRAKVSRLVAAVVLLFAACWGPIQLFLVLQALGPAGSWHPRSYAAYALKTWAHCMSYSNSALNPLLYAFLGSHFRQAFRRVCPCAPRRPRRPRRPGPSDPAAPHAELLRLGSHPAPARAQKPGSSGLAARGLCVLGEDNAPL

Row | Molecule | Fold change compared to metastin | EC50 | EC50 (nM) of agonist activation at GPR54
1 | CC(C)C[C@H](NC(=O)CNC(=O)[C@H](Cc1ccccc1)NC(=O)[C@H](CO)NC(=O)[C@H](CC(N)=O)NC(=O)[C@H](Cc1c[nH]c2ccccc12)NC(=O)[C@H](CC(N)=O)NC(=O)[C@H](Cc1ccc(O)cc1)NC(=O)[C@H](CC(N)=O)NC(=O)[C@@H]1CCCN1C(=O)[C@@H](N)CC(C)C)C(=O)N[C@@H](CCCNC(=N)N)C(=O)N[C@@H](Cc1ccccc1)C(N)=O [KP13] | 1 fold | 11 nM | –
2 | GTSLSPPPESSGSPQQPGLSAPHSRQIPAPQGAVLVQREKDLPNYNWNSFGLRF-NH2 [KP54] | 16 fold | 190 nM | –
3 | CC(C)C[C@H](NC(=O)CNC(=O)[C@H](Cc1ccccc1)NC(=O)[C@H](CO)NC(=O)[C@H](CC(N)=O)NC(=O)[C@H](Cc1c[nH]c2ccccc12)NC(=O)[C@H](CC(N)=O)NC(=O)[C@@H](N)Cc1ccc(O)cc1)C(=O)N[C@@H](CCCNC(=N)N)C(=O)N[C@@H](Cc1ccccc1)C(N)=O [KP10] | 1 fold | 10 nM | –
4 | Ald40K-KP54: Kisspeptin-54 mono-PEGylated with mPEG2-ButyrAldehyde-40K by reductive amination (stable conjugate) (GTSLSPPPESSGSPQQPGLSAPHSRQIPAPQGAVLVQREKDLPNYNWNSFGLRF-NH2; also: mono-PEGylated with mPEG2-butyraldehyde 40K by reductive amination, site not given here; UniProt Q15726 68-121, looked up) | – | – | No activity
5 | Ald30K-KP13: Kisspeptin-13 mono-PEGylated with linear mPEG-ButyrALD-30K by reductive amination (stable conjugate) (LPNYNWNSFGLRF; also: mono-PEGylated with mPEG-butyraldehyde 30K by reductive amination, site not given here; UniProt Q15726 109-121, looked up) | – | – | No activity
